According to patent US5883076A, “Systemin” (Washington State University Research Foundation, Inc., priority 1994, dated 1999):
Values belong to the molecule of their own block, whether it stands above or below them. Where no end group is shown, it is not given here.

Legend:
[1] = Loss of inducing activity of purified systemin after acid hydrolysis or proteolytic enzymes; type: physicochemical
[2] = system: proteinase Inhibitor I and II; experiment: Proteinase inhibitor inducing activity supplied through cut stems/petioles of young tomato plants, radial immunodiffusion of leaf juice; type: in vivo, tomato (Lycopersicon esculentum)
Experimental: A search was initiated for systemic signals inducing proteinase Inhibitor I and II genes in tomato leaf extracts. […] The polypeptide was purified using high-performance liquid chromatography (HPLC, see Materials and Methods, below). Inducing activity of the polypeptide was assayed by cutting the petioles of young plants and introducing eluted fractions from column separations into the cut over a period of 30 min. The plants were subsequently transferred to small vials of water, incubated under constant light for 24 hours as described (C. A. Ryan, Plant Physiol. 54, 328, 1974), and the amount of proteinase Inhibitor I and II in the leaf juice was quantified by radial immunodiffusion in agar gels that contained rabbit antiserum to Inhibitor I or Inhibitor II (C. A. Ryan, Anal. Biochem. 19, 434, 1967; R. Trautman, K. Cowan, G. Wagner, Immunochemistry 8, 901, 1971). Over 30,000 young tomato plants were assayed over a 2.5 year period.
The leaves were incubated in solutions containing the synthetic systemin polypeptide and the proteinase inhibitors were assayed as described above in Example 1. Each data point was obtained from assays of the leaves of 36 tomato plants.

[3] = in vivo
[4] = in vivo; cited from earlier work
[5] = supplied to cut stems of young tomato plants

activity after acid hydrolysis [1]: total loss of activity
activity in the presence of trypsin and other proteolytic enzymes [1]: partial loss of activity
number of tomato plants in which the sample could induce maximal accumulation of proteinase inhibitors ([2]; step 6 sample, approximately 1 μg of protein): 40,000 tomato plants
Molecule: CSCC[C@H](NC(=O)[C@H](CCCCN)NC(=O)[C@@H]1CCCN1C(=O)[C@@H]1CCCN1C(=O)[C@H](CC(=O)O)NC(=O)[C@H](CCCNC(=N)N)NC(=O)[C@H](CCCCN)NC(=O)[C@H](CO)NC(=O)[C@@H]1CCCN1C(=O)[C@@H]1CCCN1C(=O)[C@H](CCCCN)NC(=O)[C@H](CO)NC(=O)[C@H](CCC(N)=O)NC(=O)[C@@H](NC(=O)[C@H](C)N)C(C)C)C(=O)N[C@@H](CCC(N)=O)C(=O)N[C@H](C(=O)N[C@@H](CC(=O)O)C(=O)O)[C@@H](C)O [systemin, NH3 -AVQSKPPSKRDPPKMQTD-COO-]

activity on a molar basis relative to previously reported PIIF oligogalactunonide inducers ([2]; in vivo): about 10^5 times
amount of polypeptide required to produce half maximal accumulation of Inhibitors I and II [2, 5]: About 40 fmol per plant
Molecule: NH3 -AVQSKPPSKRDPPKMQTD-COO- [synthetic systemin polypeptide]
bioactivity for inducing synthesis and accumulation of Inhibitor I and II compared with native systemin [2, 5]: as effective as the native systemin polypeptide

Molecule: ^14 C-labeled polypeptide: synthetic systemin with [14C] Ala added to residues 2 through 18 (AVQSKPPSKRDPPKMQTD; also: 14C label, positions not clearly stated; UniProt P27058 179-196, looked up)
time for radioactivity to move throughout the leaf [3]: ≤ 30 min
time to identification of radiolabeled systemin in phloem exudate by HPLC [3]: 1 to 2 h

Molecule: α-1, 4-oligogalacturonides
mobility from wound sites [4]: not found to be mobile
